The subject of assay [1] is human acute myeloid leukemia MV-4-11 cell transplanted mouse. Briefly: Antitumor effect in human acute myeloid leukemia MV-4-11 cell transplanted mouse. The note with it: MV4-11, iv, 360 h. The assay is classed as in vivo. As for the experimental part:
The in vivo antitumor effect of the compound of the present invention was studied using human acute myeloid leukemia MV-4-11 cell transplanted mouse. MV-4-11 cells were subcutaneously transplanted into the inguinal region of male, 6-week-old BALB/c nude mouse (5×10^6 cells/mouse). The compound of the present invention was administered into the tail vein on days 1, 5, 9, 13 from the time point when the assumed tumor volume determined from 1/2ab^2 (a is major axis and b is minor axis of tumor) reached about 100 mm^3 (day 1). The control group was administered with a solvent, 10% hydroxypropyl-β-cyclodextrin solution. On day 15, the tumor was isolated, the weight was measured, and the tumor growth inhibitory rate IR (%) was calculated by the following formula. tumor growth inhibitory rate IR (%)=(1−tumor weight of administration group/tumor weight of nonadministration control group)×100

Assay [2] concerns the target BRD4 protein (Homo sapiens (Human), UniProt O60885). Briefly: BRD4 protein degradation inducing action in cancer cells (immunofluorescence, Operetta). The assay is classed as cell-based. The conditions noted are these: LNCaP cells, 6 hr treatment, fluorescence intensity. The method in brief: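 LNCaP prostate cancer cells in 10% FBS/RPMI1640 were exposed to compound for 6 hr at 37° C, then fixed, permeabilized and immunostained for BRD4 with Alexa Fluor 488 or 546 secondary antibodies plus Hoechst nuclear stain. Fluorescence was read by high-content imaging; DC50 is the concentration giving 50% of untreated signal, interpolated linearly between bracketing points.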

In assay [3] the test system is human prostate cancer LNCaP cells. Briefly: Cytotoxic action on cancer cells (WST-8, 96 hr). It counts as cell-based. The note with it: Homo sapiens, LNCaP, 96 h, read-out: LNCaP cytotoxic activity: IC50. The method in brief: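 Viable cell number, measured by WST-8, is compared with compound-free cultures after treatment. Cells are kept in 10% FBS/RPMI1640 at 37° C under 5% CO2, and IC50 comes from the line joining the two survival rates that bracket 50%.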
Background: Tetrazolium assays rely on reduction of a dye to a coloured formazan, in cell work by metabolically active cells.

The record followed here is US11542273B2, “Amide compound having bet proteolysis-inducing action and medicinal application thereof” (MITSUBISHI TANABE PHARMA CORPORATION, priority 2018, dated 2023).

For orientation: DC50 means the concentration giving 50% degradation. Broadly, the IC50 is the concentration at which inhibition is half-maximal.

In the case of `COC(=O)N[C@@H]1N=C(c2ccc(-c3ccc(OCC(=O)N[C@H](C(=O)N4C[C@H](O)C[C@H]4C(=O)N[C@@H](C)c4ccc(-c5scnc5C)cc4)C(C)(C)C)cc3)cc2)c2c(sc(C)c2C)-n2c(C)nnc21` [Example 31, methyl [(6R)-4-{4′-[2-({(2S)-1-[(2S,4R)-4-hydroxy-2-({(1S)-1-[4-(4-methyl-1,3-thiazol-5-yl)phenyl]ethyl}carbamoyl)pyrrolidin-1-yl]-3,3-dimethyl-1-oxobutan-2-yl}amino)-2-oxoethoxy][1,1′-biphenyl]-4-yl}-2,3,9-trimethyl-6H-thieno[3,2-f][1,2,4]triazolo[4,3-a][1,4]diazepin-6-yl]carbamate], in assay [1] (dose 0.3 mg/kg/day, tail vein on days 1, 5, 9, 13, tumor weight on day 15, read-out: tumor growth inhibitory rate), the inhibition in vivo at 0.3 mg/kg amounted to 95.6%. Also, half-maximal degradation in assay [2] (DC50) was put at 0.062 nM. Also, the IC50 in assay [3] came out at 0.039 nM.
Turning to `COC(=O)C[C@@H]1N=C(c2ccc(-c3ccc(C(=O)N[C@H](C(=O)N4C[C@H](O)C[C@H]4C(=O)N[C@@H](C)c4ccc(-c5scnc5C)cc4)C(C)(C)C)c(F)c3)cc2)c2c(sc(C)c2C)-n2c(C)nnc21` [Example 94, methyl {(6S)-4-[3′-fluoro-4′-({(2S)-1-[(2S,4R)-4-hydroxy-2-({(1S)-1-[4-(4-methyl-1,3-thiazol-5-yl)phenyl]ethyl}carbamoyl)pyrrolidin-1-yl]-3,3-dimethyl-1-oxobutan-2-yl}carbamoyl)[1,1′-biphenyl]-4-yl]-2,3,9-trimethyl-6H-thieno[3,2-f][1,2,4]triazolo[4,3-a][1,4]diazepin-6-yl}acetate], the inhibition in vivo at 3 mg/kg in assay [1] (read-out: tumor growth inhibitory rate) was found to be 98.2%. Further, in assay [2], the 50% degradation concentration (DC50) turned out to be 0.64 nM. Further, the IC50 in assay [3] came to 0.29 nM.
Regarding `COC(=O)C[C@@H]1N=C(c2ccc(-c3cc(F)cc(C(=O)N[C@H](C(=O)N4C[C@H](O)C[C@H]4C(=O)N[C@@H](C)c4ccc(-c5scnc5C)cc4)C(C)(C)C)c3F)cc2)c2c(sc(C)c2C)-n2c(C)nnc21` [Example 175, methyl {(6S)-4-[2′,5′-difluoro-3′-({(25)-1-[(2S,4R)-4-hydroxy-2-({(1S)-1-[4-(4-methyl-1,3-thiazol-5-yl)phenyl]ethyl}carbamoyl)pyrrolidin-1-yl]-3,3-dimethyl-1-oxobutan-2-yl}carbamoyl)[1,1′-biphenyl]-4-yl]-2,3,9-trimethyl-6H-thieno[3,2-f][1,2,4]triazolo[4,3-a][1,4]diazepin-6-yl}acetate], the 50% degradation concentration (DC50) in assay [2] came out at 0.5 nM. Besides, in assay [3], the IC50 is 0.3 nM.
The like results for `COC(=O)C[C@@H]1N=C(c2ccc(-c3ccc(OCC(=O)N[C@H](C(=O)N4C[C@H](O)C[C@H]4C(=O)N[C@@H](C)c4ccc(-c5scnc5C)cc4)C(C)(C)C)c(C(F)(F)F)c3)cc2)c2c(sc(C)c2C)-n2c(C)nnc21` [Example Compound 100, methyl [(6S)-4-{4′-[2-({(2S)-1-[(2S,4R)-4-hydroxy-2-({(1S)-1-[4-(4-methyl-1,3-thiazol-5-yl)phenyl]ethyl}carbamoyl)pyrrolidin-1-yl]-3,3-dimethyl-1-oxobutan-2-yl}amino)-2-oxoethoxy]-3′-(trifluoromethyl)[1,1′-biphenyl]-4-yl}-2,3,9-trimethyl-6H-thieno[3,2-f] [1,2,4]triazolo[4,3-a][1,4]diazepin-6-yl]acetate] were, in that order, 0.21 nM and 0.67 nM.
On the same counts, the results for `COC(=O)C[C@@H]1N=C(c2ccc(-c3ccc4nc(C(=O)N[C@H](C(=O)N5C[C@H](O)C[C@H]5C(=O)N[C@@H](C)c5ccc(-c6scnc6C)cc5)C(C)(C)C)oc4c3)cc2)c2c(sc(C)c2C)-n2c(C)nnc21` [Example 181, methyl [(6S)-4-{4-[2-({(2S)-1-[(2S,4R)-4-hydroxy-2-({(1S)-1-[4-(4-methyl-1,3-thiazol-5-yl)phenyl]ethyl}carbamoyl)pyrrolidin-1-yl]-3,3-dimethyl-1-oxobutan-2-yl}carbamoyl)-1,3-benzoxazol-6-yl]phenyl}-2,3,9-trimethyl-6H-thieno[3,2-f][1,2,4]triazolo[4,3-a][1,4]diazepin-6-yl]acetate] are 0.031 nM and 0.037 nM.
For `COC(=O)C[C@@H]1N=C(c2ccc(-n3ccc(C(=O)N[C@H](C(=O)N4C[C@H](O)C[C@H]4C(=O)N[C@@H](C)c4ccc(-c5scnc5C)cc4)C(C)(C)C)n3)cc2)c2c(sc(C)c2C)-n2c(C)nnc21` [Example 172, methyl [(6S)-4-{4-[3-({(2S)-1-[(2S,4R)-4-hydroxy-2-({(1S)-1-[4-(4-methyl-1,3-thiazol-5-yl)phenyl]ethyl}carbamoyl)pyrrolidin-1-yl]-3,3-dimethyl-1-oxobutan-2-yl}carbamoyl)-1H-pyrazol-1-yl]phenyl}-2,3,9-trimethyl-6H-thieno[3,2-f][1,2,4]triazolo[4,3-a][1,4]diazepin-6-yl]acetate], in assay [2], the DC50 was found to be 0.37 nM. In addition, the IC50 in assay [3] worked out at 0.36 nM.
On the same counts, the results for `CCOC(=O)c1ncsc1-c1ccc(CNC(=O)[C@@H]2C[C@@H](O)CN2C(=O)[C@@H](NC(=O)c2ccc(-c3ccc(C4=N[C@@H](CC(=O)OC)c5nnc(C)n5-c5sc(C)c(C)c54)cc3)cc2)C(C)(C)C)cc1` [Example 219, ethyl 5-{4-[({(2S,4R)-4-hydroxy-1-[(2S)-2-({4′-[(6S)-6-(2-methoxy-2-oxoethyl)-2,3,9-trimethyl-6H-thieno[3,2-f] [1,2,4]triazolo[4,3-a][1,4]diazepin-4-yl][1,1′-biphenyl]-4-carbonyl}amino)-3,3-dimethylbutanoyl]pyrrolidine-2-carbonyl}amino)methyl]phenyl}-1,3-thiazole-4-carboxylate] are 0.52 nM and 0.52 nM.
On the same counts, the results for `Cc1ncsc1-c1ccc([C@H](C)NC(=O)[C@@H]2C[C@@H](O)CN2C(=O)[C@@H](NC(=O)C2(OCCCc3ccc(C4=N[C@@H](C)c5nnc(C)n5-c5sc(C)c(C)c54)cc3)CC2)C(C)(C)C)cc1` [Example 199, (2S,4R)-1-[(2S)-3,3-dimethyl-2-{[1-(3-{4-[(6S)-2,3,6,9-tetramethyl-6H-thieno[3,2-f][1,2,4]triazolo[4,3-a] [1,4]diazepin-4-yl]phenyl}propoxy)cyclopropane-1-carbonyl]amino}butanoyl]-4-hydroxy-N-{(1S)-1-[4-(4-methyl-1,3-thiazol-5-yl)phenyl]ethyl}pyrrolidine-2-carboxamide] are 0.55 nM and 0.64 nM.
In assay [2], `COC(=O)C[C@@H]1N=C(c2ccc(N3CCN(c4cccc(C(=O)N[C@H](C(=O)N5C[C@H](O)C[C@H]5C(=O)N[C@@H](C)c5ccc(-c6scnc6C)cc5)C(C)(C)C)n4)CC3)cc2)c2c(sc(C)c2C)-n2c(C)nnc21` [Example 177, methyl [(6S)-4-(4-{4-[6-({(2S)-1-[(2S,4R)-4-hydroxy-2-({(1S)-1-[4-(4-methyl-1,3-thiazol-5-yl)phenyl]ethyl}carbamoyl)pyrrolidin-1-yl]-3,3-dimethyl-1-oxobutan-2-yl}carbamoyl)pyridin-2-yl]piperazin-1-yl}phenyl)-2,3,9-trimethyl-6H-thieno[3,2-f][1,2,4]triazolo[4,3-a] [1,4]diazepin-6-yl]acetate] showed a DC50 of 0.23 nM. Besides, the concentration for half-maximal inhibition (IC50) in assay [3] was found to be 0.36 nM.
On the same counts, the results for `Cc1ncsc1-c1ccc([C@H](C)NC(=O)[C@@H]2C[C@@H](O)CN2C(=O)[C@@H](NC(=O)c2ccc(-c3ccc(C4=N[C@@H](CC(=O)N(C)C)c5nnc(C)n5-c5sc(C)c(C)c54)cc3)c(F)c2)C(C)(C)C)cc1` [Example 207, (2S,4R)-1-{(2S)-2-[(4′-{(6S)-6-[2-(dimethylamino)-2-oxoethyl]-2,3,9-trimethyl-6H-thieno [3,2-f][1,2,4]triazolo [4,3-a] [1,4]diazepin-4-yl}-2-fluoro [1,1′-biphenyl]-4-carbonyl)amino]-3,3-dimethylbutanoyl}-4-hydroxy-N-{(1S)-1-[4-(4-methyl-1,3-thiazol-5-yl)phenyl]ethyl}pyrrolidine-2-carboxamide] are 0.62 nM and 0.43 nM.
On the same counts, the results for `COC(=O)C[C@@H]1N=C(c2ccc(-c3ccc(CCC(=O)N[C@H](C(=O)N4C[C@H](O)C[C@H]4C(=O)N[C@@H](C)c4ccc(-c5scnc5C)cc4)C(C)(C)C)s3)cc2)c2c(sc(C)c2C)-n2c(C)nnc21` [Example 188, methyl [(6S)-4-(4-{5-[3-({(2S)-1-[(2S,4R)-4-hydroxy-2-({(1S)-1-[4-(4-methyl-1,3-thiazol-5-yl)phenyl]ethyl}carbamoyl)pyrrolidin-1-yl]-3,3-dimethyl-1-oxobutan-2-yl}amino)-3-oxopropyl]thiophen-2-yl}phenyl)-2,3,9-trimethyl-6H-thieno[3,2-f][1,2,4]triazolo[4,3-a][1,4]diazepin-6-yl]acetate] are 0.26 nM and 0.042 nM.
